Measurements: the supplement of paper PMC10307832

How the values were obtained:
Assay in all cases: relative viability (nuclei count vs DMSO), 5 days (fraction); higher = more cells survive
BAY61-3606 + Linsitinib = compound: COC1=C(C=C(C=C1)C2=CC3=NC=CN3C(=N2)NC4=C(C=CC=N4)C(=O)N)OC [BAY61-3606] + C[C@]1(O)C[C@@H](c2nc(-c3ccc4ccc(-c5ccccc5)nc4c3)c3c(N)nccn32)C1 [Linsitinib] (partner 1 µM)
In short: (§1)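 Dosing by pin tool came one day after lung cancer cell lines were seeded in 1536-well plates, using either one drug or a fixed anchor-drug dose plus five library-drug doses (not always all listed) in √10 steps. After 5 days, nuclei were counted on 4× images. Relative viability is treated-well nuclei count divided by vehicle-well nuclei count, and values are medians of duplicate plates.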

Doxorubicin + Bortezomib = compound: COc1cccc2c1C(=O)c1c(O)c3c(c(O)c1C2=O)C[C@@](O)(C(=O)CO)C[C@@H]3O[C@H]1C[C@H](N)[C@H](O)[C@H](C)O1 [Doxorubicin] + CC(C)C[C@H](NC(=O)[C@H](Cc1ccccc1)NC(=O)c1cnccn1)B(O)O [Bortezomib] (partner 0.002 µM)
In short: as §1

Doxorubicin + Foretinib = compound: COc1cccc2c1C(=O)c1c(O)c3c(c(O)c1C2=O)C[C@@](O)(C(=O)CO)C[C@@H]3O[C@H]1C[C@H](N)[C@H](O)[C@H](C)O1 [Doxorubicin] + COc1cc2c(Oc3ccc(NC(=O)C4(C(=O)Nc5ccc(F)cc5)CC4)cc3F)ccnc2cc1OCCCN1CCOCC1 [Foretinib] (partner 0.25 µM)
In short: as §1

Doxorubicin + OSI-027 = compound: COc1cccc2c1C(=O)c1c(O)c3c(c(O)c1C2=O)C[C@@](O)(C(=O)CO)C[C@@H]3O[C@H]1C[C@H](N)[C@H](O)[C@H](C)O1 [Doxorubicin] + COc1cccc2cc(-c3nc([C@H]4CC[C@H](C(=O)O)CC4)n4ncnc(N)c34)[nH]c12 [OSI-027] (partner 0.5 µM)
In short: as §1

**Q.** Which results are given for UMC-11?
**A.** relative viability (BAY61-3606 + Linsitinib; first compound 0.02 µM): 1.08; relative viability (BAY61-3606 + Linsitinib; first compound 0.06325 µM): 1.11; relative viability (BAY61-3606 + Linsitinib; first compound 0.2 µM): 0.995; relative viability (BAY61-3606 + Linsitinib; first compound 0.6325 µM): 1.08; relative viability (BAY61-3606 + Linsitinib; first compound 2 µM): 1; relative viability (Doxorubicin + Bortezomib; first compound 0.001 µM): 0.667; relative viability (Doxorubicin + Bortezomib; first compound 0.003162 µM): 0.543; relative viability (Doxorubicin + Bortezomib; first compound 0.01 µM): 0.668; relative viability (Doxorubicin + Bortezomib; first compound 0.03162 µM): 0.379; relative viability (Doxorubicin + Bortezomib; first compound 0.1 µM): 0.436; relative viability (Doxorubicin + Foretinib; first compound 0.001 µM): 0.963; relative viability (Doxorubicin + Foretinib; first compound 0.003162 µM): 1.02; relative viability (Doxorubicin + Foretinib; first compound 0.01 µM): 1.02; relative viability (Doxorubicin + Foretinib; first compound 0.03162 µM): 0.685; relative viability (Doxorubicin + Foretinib; first compound 0.1 µM): 0.644; relative viability (Doxorubicin + OSI-027; first compound 0.001 µM): 0.514; relative viability (Doxorubicin + OSI-027; first compound 0.003162 µM): 0.425; relative viability (Doxorubicin + OSI-027; first compound 0.01 µM): 0.482; relative viability (Doxorubicin + OSI-027; first compound 0.03162 µM): 0.436; relative viability (Doxorubicin + OSI-027; first compound 0.1 µM): 0.368
